“Also recorded” adds a separate entry of the source.
What was measured:
[1] = Coinfusion of carboplatin and gadolinium-DTPA into pig corona radiata (T1 MRI, LA-ICP-MS); type: in vivo; settings: carboplatin 0.03 mg/ml coinfused with 0.3% gadolinium-DTPA, CED
Experimental: Carboplatin infusions were undertaken into male Large White Landrace pigs weighing 45 kg using a cannula system developed in-house. Pig anaesthesia, head immobilisation and brain imaging were achieved as we have previously described White et al (2010). Infusions of 120 μl 0.03 mg/ml carboplatin mixed with 0.3% (6 μmol/l) Gadolinium-DTPA (Magnevist: Bayer Healthcare, Germany), were undertaken bilaterally into the corona radiata using a cannula composed of a length of fused silica (outer diameter 220 μm, inner diameter 150 μm) bonded to a glass Hamilton syringe. Except for the distal 3 mm, this fused silica tube was supported along its length by a series of zirconia tubes to ensure that it could be accurately inserted to target. Infusions were performed using the following regime: 0.5 μl/min for 5 min, 1 μl/min for 5 min, 2.5 μl/min for 5 min and then 5 μl/min for 20 min. This regime was employed in an attempt to minimise the occurrence of a sudden surge in pressure at the catheter tip due to elasticity in the infusion tubing. 120 μl was infused as this is the largest volume that we have previously infused into pig white matter without leakage into the ventricular system. Following infusion completion, the cannula was left in place for 10 min prior to being withdrawn slowly by hand. CSF leakage from the burr hole and cannula track was sealed with Cerebond prior to wound closure. […]

[2] = Carboplatin toxicity in rat brain after CED (clinical, H&E, GFAP, DiI); type: in vivo
Experimental: Male Wistar rats (Charles River, UK) were group-housed and allowed to acclimatise prior to experimental procedures. Rats weighing 225 to 275 g were anaesthetised with an intraperitoneal dose of medetomidine (Dormitor; 0.4 mg/kg; Pfizer Animal Health, Kent, UK) and ketamine (Ketaset; 100 mg/kg; Pfizer, UK) and placed in a stereotactic frame (Stoelting Co, Wood Dale, Ill. USA). A linear incision was made between the glabella and the occiput and the skull exposed. Burr holes with a diameter of approximately 2 mm were drilled 1.0 mm anterior and 2.5 mm lateral to the bregma and cannulae were inserted to a depth of 2.5 mm below the dura. All cannulae were pre-primed with either saline or carboplatin and the desired dose prior to insertion into the brain. Every attempt was made to ensure that no air bubbles were present in the infusion cannula. Infusions of 2.5 μl of carboplatin at specific concentrations (outlined in Table 1) were conducted at a rate of 5 μl/min. Following infusion completion, the cannula was left in-situ for 10 min before being withdrawn at a rate of 1 mm/min. The wound was then closed with 5.0 Vicryl (Ethicon, Gargrave, UK) a dose of intramuscular buprenorphine was administered (Vetergesic; 0.03 mg/kg; Alstoe Animal Health, York, UK) and the anaesthetic was reversed with an intraperitoneal dose of atipamezole hydrochloride (Antisedan; 5 mg/kg; Pfizer, UK). At predetermined time-points (see Table 1), animals were perfusion fixed with 100 mL of PBS followed by 100 mL of 4% paraformaldehyde (PFA; Fisher Scientific, UK) in PBS (pH 7.4). The brain was then removed from the skull and placed in 4% PFA for 48 hours and then cryoprotected in 30% sucrose (Melford Laboratories, Ipswich, UK) in PBS prior to sectioning.
Rat brains were cut into 35 μm thick coronal sections using a Leica CM1850 cryostat (Leica Microsystems, Wetzlar, Germany) at −20° C. For haematoxylin and eosin staining, fixed sections were mounted on gelatine-subbed slides. Sections were submerged in 4% PFA for 20 minutes, dehydrated and then stained with haematoxylin and eosin (Cell Path, Hemel Hempstead, UK) according to standard protocols. Following this, sections were coverslipped with Pertex mounting medium (Cell Path, UK) and allowed to dry in the fumehood overnight before imaging with a Leica CTR 5500 microscope (Leica Microsystems, Germany). Sections were assessed by light microscopy to ensure that the cannula track in each brain terminated in the corpus callosum.
For fluorescent immunohistochemistry, free-floating sections were washed with PBS for 5 min×3. Sections were then blocked in PBS plus 0.1% triton-x-100 (Sigma Aldrich, UK) containing 10% normal donkey serum (Sigma Aldrich, UK) for 1 hour at RT. Sections were then washed with PBS for 5 min. […]

[3] = single brainstem infusions, concentrations as high as 1 mg/ml; cited from earlier work
GBM = settings: 4 consecutive sets of infusions at 0.03 mg/ml, assuming 50% kill per set
Experimental: This is a phase I, single centre, dose-escalation study, of carboplatin administered by CED, into the peritumoural region of patients with recurrent or progressive GBM, following tumour resection. The study will incorporate six cohorts, with three patients in each cohort.
Following tumour resection (study day 0), patients undergo a baseline MRI scan (study day 10-21), followed within 24 hours by catheter implantation. For patients with progressive multifocal disease in whom re-resection is not felt to be appropriate, catheters are implanted following a baseline MRI scan. Prior to catheter implantation, patients are loaded with phenytoin (unless allergic) and will be kept on this anticonvulsant during the duration of their infusions. In the event of allergy to phenytoin, patients are administered an alternative anticonvulsant during this time period. […] Catheter tip location is determined at the operating surgeon's discretion, and will be based on diffusion imaging-based fibre-tracking using iPlan Flow (Brainlab, Germany) and experience gained in animal models and previous patients. Up to four catheters are implanted per patient under general anaesthetic and attached to connector tubing, which will be tunnelled to a subcutaneous access device incorporating in-line bacterial filters, implanted in the infraclavicular fossa. […]

[4] = up to 0.9 mg/ml, vs 0.9% saline

For `N.N.O=C([O-])C1(C(=O)[O-])CCC1.[Pt+2]` [carboplatin], the “distribution in pig corona radiata (LA-ICP-MS)” value [1] was “widespread carboplatin distribution”, the “histological tissue toxicity (haematoxylin and eosin)” value ([2]; 0.03-0.9 mg/ml, up to 30 days) was “no histological evidence of tissue disruption; also recorded: No evidence of tissue toxicity” and the “clinical tolerability / toxicity” value ([2]; single CED infusions, concentrations of up to 0.9 mg/ml) was “well tolerated; also recorded: no clinical or histological evidence of toxicity”. The “gliosis in white matter (GFAP immunostaining)” value [2, 4] was “minimal evidence of gliosis”, the “white matter tract integrity (DiI staining)” value [2, 4] was “no loss of white matter tract integrity” and the histological tissue damage [3] was “without histological evidence of tissue damage”. The “theoretical tumour cell kill” value (GBM) was 94%.

Source: patent US20160136284A1, “GLIOMA TREATMENT” (priority 2012, published 2016)
